What follows are molecules tested against T1, Chk1 (Homo sapiens, UniProt O14757) (assay: Chk1 kinase assay: incorporation of γ-33P ATP into immobilized myelin basic protein). Settings: read-out: Chk1 IC50.
T1 construct: purchased Upstate Biotechnology
T1 sequence (O14757 1-476): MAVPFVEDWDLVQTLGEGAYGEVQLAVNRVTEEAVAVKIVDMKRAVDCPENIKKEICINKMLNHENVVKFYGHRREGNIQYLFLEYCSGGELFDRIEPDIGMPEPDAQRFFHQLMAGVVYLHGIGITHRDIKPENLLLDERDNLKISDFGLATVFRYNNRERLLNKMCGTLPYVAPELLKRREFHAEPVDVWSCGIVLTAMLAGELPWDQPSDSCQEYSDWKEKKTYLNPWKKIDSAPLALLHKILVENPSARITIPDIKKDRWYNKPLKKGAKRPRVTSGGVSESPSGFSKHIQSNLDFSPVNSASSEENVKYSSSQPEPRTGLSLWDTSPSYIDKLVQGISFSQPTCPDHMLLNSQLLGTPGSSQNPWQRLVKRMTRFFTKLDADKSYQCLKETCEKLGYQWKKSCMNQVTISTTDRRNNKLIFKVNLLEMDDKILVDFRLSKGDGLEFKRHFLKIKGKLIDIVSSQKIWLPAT
Type: biochemical
Summary of the method: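 Immobilized-MBP radiometric kinase assay, room temperature for 1 h; ATP 10 μM (Chk1, 10 nM enzyme) or 30 μM (Chk2, 20 nM enzyme) with 33P tracer. Values are IC50s, with Ki derived from them.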
In the case of `CNC(=O)c1nc(-c2cccc(NC(=O)c3cccc(Oc4ccccc4)c3)c2)cnc1N` [Example 156, 3-amino-N-methyl-6-[3-({[3-(phenyloxy)phenyl]carbonyl}amino)phenyl]pyrazine-2-carboxamide], the IC50 is reported as 50 to 1000 nM. With `CNC(=O)c1nc(-c2cccc(NC(=O)C(c3ccccc3)c3ccccc3)c2)cnc1N` [Example 157, 3-amino-6-{3-[(diphenylacetyl)amino]phenyl}-N-methylpyrazine-2-carboxamide] the IC50 was 50 to 1000 nM. For `CNC(=O)c1nc(-c2cccc(NC(=O)Cc3ccccc3)c2)cnc1N` [Example 158, 3-amino-N-methyl-6-{3-[(phenylacetyl)amino]phenyl}pyrazine-2-carboxamide], the IC50 was 50 to 1000 nM. Molecule `CNC(=O)c1nc(-c2cccc(NC(=O)CCc3ccccc3)c2)cnc1N` [Example 159, 3-amino-N-methyl-6-{3-[(3-phenylpropanoyl)amino]phenyl}pyrazine-2-carboxamide] has an IC50 of 50 to 1000 nM. Molecule `CNC(=O)c1nc(-c2cccc(C(=O)N[C@@H]3CCCc4ccccc43)c2)cnc1N` [Example 160, 3-amino-N-methyl-6-(3-{[(1R)-1,2,3,4-tetrahydronaphthalen-1-ylamino]carbonyl}phenyl)pyrazine-2-carboxamide] has an IC50 of 1000 to 10000 nM. With `CNC(=O)c1nc(-c2cccc(C(=O)N[C@H]3CCCc4ccccc43)c2)cnc1N` [Example 161, 3-amino-N-methyl-6-(3-{[(1S)-1,2,3,4-tetrahydronaphthalen-1-ylamino]carbonyl}phenyl)pyrazine-2-carboxamide] the IC50 was 50 to 1000 nM. In the case of `CNC(=O)c1nc(-c2cccc(C(=O)NCc3cc(OC)c(OC)c(OC)c3)c2)cnc1N` [Example 162, 3-amino-N-methyl-6-{3-[({[3,4,5-tris(methyloxy)phenyl]methyl}amino)carbonyl]phenyl}pyrazine-2-carboxamide], the IC50 is reported as 50 to 1000 nM. `CNC(=O)c1nc(-c2cccc(C(=O)N[C@@H]3CCC[C@H]3OCc3ccccc3)c2)cnc1N` [Example 163, 3-amino-N-methyl-6-{3-[({(1R,2R)-2-[(phenylmethyl)oxy]cyclopentyl}amino)carbonyl]phenyl}pyrazine-2-carboxamide] was tested, and the IC50 was 1000 to 10000 nM. In the case of `CNC(=O)c1nc(-c2cccc(C(=O)N[C@H]3CCC[C@@H]3OCc3ccccc3)c2)cnc1N` [Example 164, 3-amino-N-methyl-6-{3-[({(1S,2S)-2-[(phenylmethyl)oxy]cyclopentyl}amino)carbonyl]phenyl}pyrazine-2-carboxamide], the IC50 is reported as 50 to 1000 nM. For `CNC(=O)c1nc(-c2cccc(C#N)c2)cnc1N` [Example 165, 3-amino-6-(3-cyanophenyl)-N-methylpyrazine-2-carboxamide], the IC50 was 1000 to 10000 nM. With `CNC(=O)c1nc(-c2cccc(NC(=O)C3CCCC3)c2)cnc1N` [Example 166, 3-amino-6-{3-[(cyclopentylcarbonyl)amino]phenyl}-N-methylpyrazine-2-carboxamide] the IC50 was 50 to 1000 nM. For `CNC(=O)c1nc(-c2cccc(NC(=O)c3ccc(C#N)cc3)c2)cnc1N` [Example 167, 3-amino-6-(3-{[(4-cyanophenyl)carbonyl]amino}phenyl)-N-methylpyrazine-2-carboxamide], the IC50 was 50 to 1000 nM. Molecule `CNC(=O)c1nc(-c2cccc(NC(=O)NCc3ccccc3)c2)cnc1N` [Example 168, 3-amino-N-methyl-6-[3-({[(phenylmethyl)amino]carbonyl}amino)phenyl]pyrazine-2-carboxamide] has an IC50 of 50 to 1000 nM. `CNC(=O)c1nc(-c2cccc(C(=O)NCc3ccc4ccccc4c3)c2)cnc1N` [Example 169, 3-amino-N-methyl-6-(3-{[(naphthalen-2-ylmethyl)amino]carbonyl}phenyl)pyrazine-2-carboxamide] showed an IC50 of 50 to 1000 nM. `CNC(=O)c1nc(-c2cccc(C(=O)NCC3CCCO3)c2)cnc1N` (stereo not shown) [Example 170, 3-amino-N-methyl-6-(3-{[(tetrahydrofuran-2-ylmethyl)amino]carbonyl}phenyl)pyrazine-2-carboxamide] was tested, and the IC50 was 1000 to 10000 nM. For `CNC(=O)c1nc(-c2cccc(C(=O)NCc3c(F)cccc3Cl)c2)cnc1N` [Example 171, 3-amino-6-[3-({[(2-chloro-6-fluorophenyl)methyl]amino}carbonyl)phenyl]-N-methylpyrazine-2-carboxamide], the IC50 was 50 to 1000 nM. `CNC(=O)c1nc(-c2cccc(C(=O)NCc3cc(F)cc(C(F)(F)F)c3)c2)cnc1N` [Example 172, 3-amino-6-{3-[({[3-fluoro-5-(trifluoromethyl)phenyl]methyl}amino)carbonyl]phenyl}-N-methylpyrazine-2-carboxamide] showed an IC50 of 50 to 1000 nM. `CNC(=O)c1nc(-c2cccc(C(=O)NCCc3cc(OC)cc(OC)c3)c2)cnc1N` [Example 173, 3-amino-6-{3-[({2-[3,5-bis(methyloxy)phenyl]ethyl}amino)carbonyl]phenyl}-N-methylpyrazine-2-carboxamide] was tested, and the IC50 was 1000 to 10000 nM. For `CNC(=O)c1nc(-c2cccc(OCCc3ccccc3)c2)cnc1N` [Example 174, 3-amino-N-methyl-6-{3-[(2-phenylethyl)oxy]phenyl}pyrazine-2-carboxamide], the IC50 was 50 to 1000 nM. In the case of `CNC(=O)c1nc(-c2cccc(OCCN3CCC(C)CC3)c2)cnc1N` [Example 175, 3-amino-N-methyl-6-(3-{[2-(4-methylpiperidin-1-yl)ethyl]oxy}phenyl)pyrazine-2-carboxamide], the IC50 is reported as 1000 to 10000 nM. `CNC(=O)c1nc(-c2cccc(OCCN3CCC(CCO)CC3)c2)cnc1N` [Example 176, 3-amino-6-[3-({2-[4-(2-hydroxyethyl)piperidin-1-yl]ethyl}oxy)phenyl]-N-methylpyrazine-2-carboxamide] gave an IC50 of 1000 to 10000 nM. For `CNC(=O)c1nc(-c2cccc(OCCN3CCC(O)C3)c2)cnc1N` (stereo not shown) [Example 177, 3-amino-6-(3-{[2-(3-hydroxypyrrolidin-1-yl)ethyl]oxy}phenyl)-N-methylpyrazine-2-carboxamide], the IC50 was 1000 to 10000 nM. Work on `CCN(CCOc1cccc(-c2cnc(N)c(C(=O)NC)n2)c1)Cc1ccccc1` [Example 178, 3-amino-6-[3-({2-[ethyl(phenylmethyl)amino]ethyl}oxy)phenyl]-N-methylpyrazine-2-carboxamide] yielded an IC50 of 50 to 1000 nM. Molecule `CCN(CC)CCOc1cccc(-c2cnc(N)c(C(=O)NC)n2)c1` [Example 179, 3-amino-6-(3-{[2-(diethylamino)ethyl]oxy}phenyl)-N-methylpyrazine-2-carboxamide] has an IC50 of 50 to 1000 nM. With `CNC(=O)c1nc(-c2cccc(C(=O)NCc3ccccc3-c3ccccc3)c2)cnc1N` [Example 180, 3-amino-6-(3-{[(biphenyl-2-ylmethyl)amino]carbonyl}phenyl)-N-methylpyrazine-2-carboxamide] the IC50 was < 50 nM. For `CNC(=O)c1nc(-c2cccc(OCCN3CCN(c4ccccc4)CC3)c2)cnc1N` [Example 181, 3-amino-N-methyl-6-(3-{[2-(4-phenylpiperazin-1-yl)ethyl]oxy}phenyl)pyrazine-2-carboxamide], the IC50 was 50 to 1000 nM. With `CNC(=O)c1nc(-c2cccc(C(=O)NCc3ccc(-c4ccccc4)cc3)c2)cnc1N` [Example 182, 3-amino-6-(3-{[(biphenyl-4-ylmethyl)amino]carbonyl}phenyl)-N-methylpyrazine-2-carboxamide] the IC50 was < 50 nM. With `CNC(=O)c1nc(-c2cccc(OCCN(C)Cc3ccccc3)c2)cnc1N` [Example 183, 3-amino-N-methyl-6-[3-({2-[methyl(phenylmethyl)amino]ethyl}oxy)phenyl]pyrazine-2-carboxamide] the IC50 was 50 to 1000 nM.

Source: patent US7704995B2 (Exelixis, Inc., priority 2003, dated 2010)
